Experiments:
[1] = system: HCT15, SW48 and HCT116 cells; experiment: HERV-K expression in CRC cell lines; assay type: cell-based
Source text: The expression of HERV-K was detected in several CRC cell lines and tissues, but not in benign colon tissues. […] The forced overexpression of HERV-K with these agents that induce expression of HERV-K by innate immune response (Poly I:C treatment) or LTR hypomethylation (5-Aza) would provoke the cancer cells to increase production of a target that would make them more susceptible to targeted therapy to include targeted immunotherapy.

[2] = system: MDA-MB-231, Hs578T, and MCF-7 breast cancer cells; experiment: proliferation and drug sensitivity of breast cancer cells after HERV-K KD; assay type: cell-based, human; settings: for sensitivity of breast cancer cells toward drug: MCF-7 and Hs578T stably transduced with shRNAenv vs shRNAc or parent cells
Source text: Here, the inventors further determined the effects of HERV-K env gene KD in breast cancer cells treated with breast cancer chemotherapy drugs.

[3] = system: MCF-7, HS578T, MDA-MB-231 cells; experiment: transwell migration and invasion; assay type: cell-based, human; design: dose or concentration left out as unconfirmed
Experimental: The effects of KD of HERV-K env on migration and invasion were investigated using transwell plates. After transwell plates (8 μm) were rehydrated for 2 hours, 2.5×10^4 cells were seeded into the transwell and cultured. The transwell was then removed and the cells that had migrated into the lower chamber were counted. For the invasion assay, transwells were coated with Matrigel, and cells remaining in the upper chamber were removed with a cotton swab. The invaded cells on the reverse side of the Matrigel were counted under a light microscope (40× magnification) after the cells were fixed with methanol and stained with Giemsa. Ten random fields were counted. The average number of invaded cells per field was presented as mean±SD (n=10 fields). Triplicate assays were performed for each experiment.

[4] = system: MCF-7 and Hs578T breast cancer cell lines; experiment: cell cycle distribution by FACS; assay type: cell-based, human; settings: Hs578T cells, especially in the shRNAenv cells
breast cancer cell lines [5] = experiment: expression of HERV-K and signaling proteins after H2O2 or paclitaxel; assay type: cell-based, human; settings: for expression of signaling proteins by immunoblot: paclitaxel (Tax, 0.1 μM) or H2O2 (5 μM or 10 μM), vs parent cells
breast cancer cell lines [6] = system: breast cancer cell lines
[7] = system: HERV-K envelope surface fusion protein; experiment: ELISA binding to HERV-K envelope surface fusion protein; design: species or system human
Source text: An ELISA assay was used to compare antigen binding sensitivity and specificity of hu6H5 vs. m6H5.

[8] = system: ERVK6 and HERV-K envelope surface fusion protein; experiment: immunoblot on HERV-K Env surface proteins; assay type: binding, human
HERV-K env protein = experiment: antibody internalization; assay type: cell-based; settings: 37° C., 0, 5, 30, and 45 minutes; permeabilized cells
Experimental: To determine antibody internalization of humanized and murine antibodies, cells were incubated with HUM1 or m6H5 at 37° C. for different time intervals (0, 5, 30, and 45 minutes). At each time point, cells were fixed. Half of the cells were permeabilized and half were not permeabilized. Anti-human IgG 488 or anti-mouse IgG 488 was used to detect the percentages of antibody-bound HERV-K env protein that remained on the cell surface in the cells that were not permeabilized. A reduced surface expression of HERV-K positive cells was observed. The internalization of rate was determined in the cells that were permeabilized. The equation for the percentage of internalization at each point was 100−(% label at time 0).

MDA-MB-231 cells = experiment: Live/dead cell viability assay; assay type: cell-based, human; settings: 10 μg/ml, sixteen hours
Experimental: Live/dead cell viability assays were used to assess induction of cell death after anti-HERV-K antibody treatment. MDA-MB-231 cells were seeded overnight in 24-well plates. Cells were treated with various antibodies (10 μg/ml) and incubated for sixteen hours at 37C in a cell culture incubator. Calcein Am (4 μl/10 ml media) and Eth-D1 (20 μl/10 ml media), 200 μl per well, were then added and cells were incubated for thirty minutes at room temperature. EthD-1 penetrates cells with membrane damage and binds to nucleic acids to produce red fluorescence in dead cells. Live cells (green color; Calcein Am) and putative dead cells (red color; EthD-1) were identified using the co-stained Live/Dead Viability Assay. Human IgG or mouse IgG were used control.

4T1pLVXKenv tumors = experiment: 4T1pLVXKenv combination treatment, Treg cells; assay type: in vivo, mouse; settings: pLVXKenv vs pLVX; 6H5 once, IL2 for five days
Experimental: BALB/c mice were inoculated with 3×10^5 4T1pLVXKenv or 4T1pLVX cells on day 0. These mice were then treated: FIG. 23B with CpG (1.24 nmol), HERV-K SU protein (10 μg, 20 μg, and 20 μg), or CpG+ HERV-K SU protein on days 6, 13, and 19. Tumor weights were compared at week 4 post tumor cell inoculation; (FIG. 23C) with Aza (0.5 mg/kg) daily for five days in two weekly cycles, anti-PD-1 (200 μg per mouse every four days; four treatments), or Aza+anti-PD-1. Mice treated with PBS were used as controls, and tumor weights were compared among groups; and (FIG. 23D) with anti-HERV-K antibody (6H5; once) and with IL2 (for five days).

Nc1ncn([C@@H]2O[C@H](CO)[C@@H](O)[C@H]2O)c(=O)n1 [5-Azacytidine]
expression of HERV-K [1]: Increased expression of HERV-K

Poly I:C
expression of HERV-K [1]: Increased expression of HERV-K

CC(=O)O[C@H]1C(=O)[C@@]2(C)[C@H]([C@H](OC(=O)c3ccccc3)[C@]3(O)C[C@H](OC(=O)[C@H](O)[C@@H](NC(=O)c4ccccc4)c4ccccc4)C(C)=C1C3(C)C)[C@]1(OC(C)=O)CO[C@@H]1C[C@@H]2O [paclitaxel]
sensitivity of breast cancer cells toward drug [2]: Enhanced sensitivity | cell proliferation ([2]; cells with HERV-K env KD by shRNAenv vs parent cells or shRNAc): Significantly reduced cell proliferation | migration and invasion [3]: Significantly reduced migration and invasion | cell cycle arrest [4]: G2 arrest | expression of signaling proteins by immunoblot (breast cancer cell lines [5]): increased expression of the breast cancer relevant signaling proteins HIF-1α, HERV-K, p-RSK, p-ERK, ERK, and Ras

OO [H2O2, Hydrogen Peroxide]
effect on shRNAenv-induced block in expression (breast cancer cell lines [5]; 5 μM, HERV-K KD cells): reversed the shRNAenv-induced block in expression of HERV-K, HIF-1α, P-RSK, and P-ERK in a time-dependent manner | expression at elevated concentrations (breast cancer cell lines [5]; 25 μM and 50 μM): decreased expression of HERV-K and corresponding decreased HIF-1a and Ras/ERK signaling | protein expression at graded concentrations (breast cancer cell lines [5]; 1-50 μM, three breast cancer cell lines): enhanced expression of HERV-K, Ras, p-ERK, and HIF-1a proteins at H2O2 concentrations of 5 μM and 10 μM | expression of HERV-K mRNA (breast cancer cell lines [5]; 5 M, 0 hours to 48 hours, three breast cancer cell lines): elevated expression of HERV-K mRNA | expression of HERV-K, p-MEK, and p-ERK by immunoblot (breast cancer cell lines [5]; 18 hours): enhanced expression of HERV-K, p-MEK, and p-ERK | expression of EMT markers (breast cancer cell lines [5]; MDA-MB-231 cells): Increased expression of EMT markers including N-cadherin, vimentin, and Slug, and decreased expression of E-Cadherin | expression of signaling proteins by immunoblot (breast cancer cell lines [5]): increased expression of the breast cancer relevant signaling proteins HIF-1α, HERV-K, p-RSK, p-ERK, ERK, and Ras | cell proliferation (breast cancer cell lines [6]; 5 μM, after 96 hours): Significantly increased cell proliferation | migration (breast cancer cell lines [6]; after 48 hours for MDA-MB-231 and after 72 hours for MCF-7): increased migration

COc1cccc2c1C(=O)c1c(O)c3c(c(O)c1C2=O)C[C@@](O)(C(=O)CO)C[C@@H]3O[C@H]1C[C@H](N)[C@H](O)[C@H](C)O1 [doxorubicin]
sensitivity of breast cancer cells toward drug [2]: Enhanced sensitivity

B1: m6H5: murine anti-HERV-K monoclonal antibody (antibody, V domains shown)
VH: QVKLQQSGPDLVKPGASVKISCKASGYSFTGYYMHWVKQSHGKSLEWIGRVNPNSGGTSYNQKFKDKAILTVDKSSSTAYMELRSLTSEDSAVYYCARSKGNYFYAMDYWGQGTTVTVSS
VL: DIELTQSPASLAVSLGQRATISCRASESVDSHGTSFMHWYQQKPGQPPKFLIYRASNLESGIPARFSGSGSRTDFTLTINPVETDDVAIYYCQQSNEDPPTFGGGTKLEIK
binding detected by the inventors using ELISA or Western blot assays [7]: readily detected | binding by immunoblot to two HERV-K Env surface proteins [8]: shown by immunoblot to bind | internalized HERV-K positive cells (HERV-K env protein): increased expression of internalized HERV-K positive cells | dead cells (red fluorescence, EthD-1) (MDA-MB-231 cells): red fluorescent cells were observed | T regulatory (Treg) cells (4T1pLVXKenv tumors): Significantly decreased T regulatory (Treg) cells

Source: patent US20250145693A1, “HERV-K ANTIBODY, CELL, VACCINE, AND DRUG THERAPEUTICS” (priority 2021, published 2025)
